Assay results taken from PMC6327951 (The Journal of organic chemistry, 2018).
“Also recorded” adds a separate entry of the source. Where two headings read alike, the source gives them in different places.

Experiments:
SpNanB [1] = molecular target: T1, SpNanB (Streptococcus pneumoniae serotype 4, UniProt Q54727); conditions: cited from earlier work
SpNanC [2] = molecular target: T2, SpNanC (Streptococcus pneumoniae, UniProt A0A0H2UQE4); conditions: cited from earlier work
IT-sialidase RgNanH = conditions: cited from earlier work
[3] = system: SpNanA, SpNanB, SpNanC, PmST1, BiNanH2, AuSialidase, CpNanI, VcSialidase, hNEU2; test: Sialidase inhibition assay at 1 mM, whole panel of sialidases tested; type: biochemical; conditions: inhibitor 1 mM
SpNanB [4] = molecular target: T1, SpNanB; test: SpNanB-catalyzed hydrolysis assay; type: biochemical; conditions: 10 mM compound, SpNanB 1 mg/mL, NaOAc pH 6.0 or Tris-HCl pH 7.0, 24 h
SpNanA [5] = molecular target: T3, SpNanA (Streptococcus pneumoniae, UniProt P62575); test: Sialidase inhibition assay, 384-well colorimetric, Neu5Acα2–3GalβpNP substrate; type: biochemical; conditions: inhibitor 1 mM
VcSialidase = VcSialidase (Vibrio cholerae serotype O1, UniProt P0C6E9); test: as above; type: biochemical
SpNanB [6] = molecular target: T1, SpNanB; test: as above; type: biochemical; conditions: for Inhibitory activity against SpNanB: inhibitor 1 mM
AuSialidase = AuSialidase (Paenarthrobacter ureafaciens, UniProt Q5W7Q2); test: as above; type: biochemical, Arthrobacter ureafaciens; conditions: inhibitor 1 mM
SpNanC [7] = molecular target: T2, SpNanC; test: as above; type: biochemical
SpNanA [8] = molecular target: T3, SpNanA; conditions: cited from earlier work

T1 sequence (Q54727 30-697): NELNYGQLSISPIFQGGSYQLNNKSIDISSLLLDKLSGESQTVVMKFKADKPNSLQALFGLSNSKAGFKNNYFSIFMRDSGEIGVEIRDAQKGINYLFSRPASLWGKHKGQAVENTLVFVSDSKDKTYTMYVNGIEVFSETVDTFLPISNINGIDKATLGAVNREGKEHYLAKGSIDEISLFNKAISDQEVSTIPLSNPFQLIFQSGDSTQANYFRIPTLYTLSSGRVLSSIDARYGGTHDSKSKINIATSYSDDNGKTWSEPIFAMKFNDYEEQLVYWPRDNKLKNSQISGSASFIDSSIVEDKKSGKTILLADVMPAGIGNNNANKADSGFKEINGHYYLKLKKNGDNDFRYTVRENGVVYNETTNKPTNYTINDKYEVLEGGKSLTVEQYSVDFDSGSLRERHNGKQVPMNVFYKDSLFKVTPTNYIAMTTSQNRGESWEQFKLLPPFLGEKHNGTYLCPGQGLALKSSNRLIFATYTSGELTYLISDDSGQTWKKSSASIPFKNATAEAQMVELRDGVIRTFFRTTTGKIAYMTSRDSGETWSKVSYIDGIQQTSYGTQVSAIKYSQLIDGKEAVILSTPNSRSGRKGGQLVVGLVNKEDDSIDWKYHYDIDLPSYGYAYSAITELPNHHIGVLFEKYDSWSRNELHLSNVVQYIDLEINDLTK
T3 sequence (P62575 54-1035): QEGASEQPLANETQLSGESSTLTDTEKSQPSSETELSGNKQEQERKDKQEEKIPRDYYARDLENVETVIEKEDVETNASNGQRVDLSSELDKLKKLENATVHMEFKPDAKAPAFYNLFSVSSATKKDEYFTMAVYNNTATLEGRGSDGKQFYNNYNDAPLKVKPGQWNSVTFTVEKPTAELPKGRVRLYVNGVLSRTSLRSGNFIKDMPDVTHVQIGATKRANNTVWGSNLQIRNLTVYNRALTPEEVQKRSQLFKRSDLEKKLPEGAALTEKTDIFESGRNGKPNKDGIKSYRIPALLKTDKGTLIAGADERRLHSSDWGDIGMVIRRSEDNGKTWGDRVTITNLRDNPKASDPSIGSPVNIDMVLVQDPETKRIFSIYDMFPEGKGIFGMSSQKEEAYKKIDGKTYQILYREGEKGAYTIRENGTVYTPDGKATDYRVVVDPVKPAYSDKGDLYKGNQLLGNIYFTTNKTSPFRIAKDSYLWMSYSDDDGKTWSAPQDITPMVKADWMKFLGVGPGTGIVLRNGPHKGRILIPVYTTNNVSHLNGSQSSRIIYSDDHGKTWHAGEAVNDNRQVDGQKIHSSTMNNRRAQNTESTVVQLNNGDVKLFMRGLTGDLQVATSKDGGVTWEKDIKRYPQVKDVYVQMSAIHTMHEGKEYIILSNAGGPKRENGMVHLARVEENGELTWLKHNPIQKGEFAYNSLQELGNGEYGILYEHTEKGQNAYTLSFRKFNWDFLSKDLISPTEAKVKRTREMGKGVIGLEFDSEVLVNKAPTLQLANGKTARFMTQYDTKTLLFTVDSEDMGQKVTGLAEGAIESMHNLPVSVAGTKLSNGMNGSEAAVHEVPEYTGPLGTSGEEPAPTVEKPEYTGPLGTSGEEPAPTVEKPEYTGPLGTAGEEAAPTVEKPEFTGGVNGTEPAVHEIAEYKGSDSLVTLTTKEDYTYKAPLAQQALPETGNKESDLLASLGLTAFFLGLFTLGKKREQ
Chain of VcSialidase (P0C6E9 25-781): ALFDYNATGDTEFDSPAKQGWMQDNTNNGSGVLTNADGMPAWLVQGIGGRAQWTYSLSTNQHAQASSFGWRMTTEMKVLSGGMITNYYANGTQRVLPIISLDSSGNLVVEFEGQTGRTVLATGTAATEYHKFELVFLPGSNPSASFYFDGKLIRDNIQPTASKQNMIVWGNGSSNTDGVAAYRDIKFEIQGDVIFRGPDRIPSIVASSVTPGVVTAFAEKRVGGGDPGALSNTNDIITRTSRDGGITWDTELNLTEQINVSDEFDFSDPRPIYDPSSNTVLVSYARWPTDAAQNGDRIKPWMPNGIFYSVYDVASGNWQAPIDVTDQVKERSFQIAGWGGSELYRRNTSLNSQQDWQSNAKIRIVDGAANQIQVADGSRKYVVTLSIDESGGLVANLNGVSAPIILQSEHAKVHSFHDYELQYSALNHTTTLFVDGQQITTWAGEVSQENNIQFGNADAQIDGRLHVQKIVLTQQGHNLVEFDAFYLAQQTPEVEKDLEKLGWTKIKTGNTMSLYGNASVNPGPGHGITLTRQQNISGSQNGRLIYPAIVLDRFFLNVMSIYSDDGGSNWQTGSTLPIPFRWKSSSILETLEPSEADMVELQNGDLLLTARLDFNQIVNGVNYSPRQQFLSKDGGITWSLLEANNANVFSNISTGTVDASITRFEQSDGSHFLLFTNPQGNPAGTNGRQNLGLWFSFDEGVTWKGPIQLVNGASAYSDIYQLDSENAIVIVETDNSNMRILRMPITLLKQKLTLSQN

O=S(=O)(O)CCNC1CCCCC1 [CHES, 2-N-Cyclohexylaminoethanesulfonic acid]
Inhibition against SpNanB (SpNanB [1]): weak inhibition

CC(=O)N[C@H]1[C@H]([C@H](O)[C@H](O)CO)OC(C(=O)O)=C[C@@H]1O [Neu5Ac2en, 2,3-dehydro-2-deoxy-N-acetylneuraminic acid]
IC50 against SpNanC (SpNanC [2]): submillimolar range | Inhibition against SpNanB (SpNanB [1]; other reports): millimolar inhibitor

CCOC(=O)C1=C[C@@H](OC(CC)CC)[C@H](NC(C)=O)[C@@H](N)C1 [Oseltamivir]
Inhibitory activity against SpNanC (SpNanC [2]; concentration up to 7.5 mM): did not show inhibitory activity | Inhibition of RgNanH (IT-sialidase RgNanH): inhibited | Inhibitory activity against SpNanB (SpNanB [1]; concentration up to 7.5 mM): did not show inhibitory activity

COc1cc2oc(-c3ccc(O)cc3O)c(CC=C(C)C)c(=O)c2c(O)c1/C=C/C(C)C [artocarpin]
Inhibition against SpNanB (SpNanB [1]): reported to be inhibitors

CC(=O)N[C@H]1[C@H]2O[C@@](C(=O)O)(C[C@@H]1O)O[C@@H]2[C@H](O)CO [compound 1, 5-Acetamido-2,7-anhydro-3,5-dideoxy-α-D-glycero-D-galacto-non-2-ulopyranosonic acid]
Inhibition against any sialidases tested [3]: no significant inhibition | Hydrolysis by SpNanB (SpNanB [4]): can be hydrolyzed by SpNanB; also recorded: most 2,7-anhydro-Neu5Ac (1) was converted to Neu5Ac

O=C(N[C@H]1[C@H]2O[C@@](C(=O)O)(C[C@@H]1O)O[C@@H]2[C@H](O)CO)C(F)(F)F [compound 2, 2,7-Anhydro-3,5-dideoxy-5-trifluoroacetamido-α-D-glycero-D-galacto-non-2-ulopyranosonic acid]
Inhibitory activity against SpNanA (SpNanA [5]): some inhibitory activity | IC50 (VcSialidase): 500 to 1000 µM | Inhibitory activity against VcSialidase (VcSialidase; inhibitor 1 mM): some inhibitory activity | IC50 (SpNanB [6]): 250 to 500 µM | Inhibitory activity against SpNanB (SpNanB [6]): some inhibitory activity | Inhibitory activity against AuSialidase (AuSialidase): some inhibitory activity | IC50 (SpNanC [7]): > 1000 µM

N[C@H]1[C@H]2O[C@@](C(=O)O)(C[C@@H]1O)O[C@@H]2[C@H](O)CO [compound 3, 5-Amino-2,7-anhydro-3,5-dideoxy-α-D-glycero-D-galacto-non-2-ulopyranosonic acid]
Inhibition against any sialidases tested [3]: no significant inhibition

O=C(N[C@H]1[C@H]2O[C@@](C(=O)O)(C[C@@H]1O)O[C@@H]2[C@H](O)CO)C1CCCCC1 [compound 4, 2,7-Anhydro-5-cyclohexylamido-3,5-dideoxy-α-D-glycero-D-galacto-non-2-ulopyranosonic acid]
Inhibitory activity against SpNanA (SpNanA [5]): noticeable inhibitory activity | Hydrolysis by SpNanB (SpNanB [4]): resistant to SpNanB hydrolysis; also recorded: remained intact | Inhibitory activity against SpNanB (SpNanB [6]): noticeable inhibitory activity | Inhibitory activity against SpNanC (SpNanC [7]; inhibitor 1 mM): noticeable inhibitory activity

O=C(CCc1ccccc1)C[C@@H]1C[C@@H](c2ccccc2)c2c(cc(/C=C/c3ccccc3)oc2=O)O1 [katsumadain A]
Inhibition against SpNanB (SpNanB [1]): reported to be inhibitors

O=C(CCCCCCCCc1ccc(O)c(O)c1)c1c(O)cccc1O [malabaricone C]
IC50 against SpNanC (SpNanC [2]): submicromolar range | IC50 against SpNanA (SpNanA [8]): submicromolar range | IC50 against SpNanB (SpNanB [1]): submicromolar range
